Test results: patent publication US20090202453A1, “Oral Composition” (Hindustan Lever Limited, priority 2004, published 2009)

Columns and labels:
[1] = upper aqueous solution pH attained without precipitating zinc hydroxide; assay type: physicochemical; conditions: 1:3 molar ratio of zinc to ligand
[2] = binding affinity of one ligand with free zinc ion; recorded at pH 7.4
Method: The log Ks1 is the logarithm of the primary Stability Constant which is the binding affinity for a particular ligand with a particular metal ion, in the present invention zinc. […] Since [L] is a function of the solution pH, due to the required initial deprotonation of the ligand, as a reference point, the log Ks1 values described were recorded at pH 7.4.

Row | Compound | pH at which zinc hydroxide precipitates [1] | pH at which zinc hydroxide precipitates ([1]; listed as acetate) | zinc-ligand (log Ks1) [2]
1 | CC(=O)O [acetic acid] | 5.82 | below 6 | –
2 | NCC(=O)O [glycine] | >10 | – | 5.16
